# Data taken from ChEMBL document CHEMBL3885861, “Open TG-GATES”.
# Species: Rattus norvegicus
# Assay: Open TG-GATES - Regimen: Single
# Assay type: toxicity, organism-based, Sprague-Dawley
# Parameters: regimen Single, gender Male, age 6 weeks
# Conditions: in vivo, ip, 400 mg/kg, route intraperitoneal injection, dose level High; for APTT / Bas / Eos / Fbg / Hb / Ht / Lym / MCH / MCHC / MCV / Mono / Neu / PT / Plat / RBC / Ret / WBC: tissue Blood; for KIDNEY_L / KIDNEY_R / KIDNEY_TOTAL: tissue Kidney; for LIVER: tissue Liver; for A/G / ALP / ALT / AST / BUN / CRE / Ca / Cl / DBIL / GLC / IP / K / LDH / Na / PL / RALB / TBIL / TC / TG / TP / gamma-GTP: tissue Plasma
smiles,measurement,setting,value
CC(C)=CC(=O)C=C(C)C [PHORONE],TERMINAL_BW,3 h,224 g
same,APTT,3 h,18 s
same,Bas,3 h,0%
same,Eos,3 h,0.8%
same,Fbg,3 h,206.6 mg/dL
same,Hb,3 h,13.7 g/dL
same,Ht,3 h,40.8%
same,Lym,3 h,81%
same,MCH,3 h,21.9 pg
same,MCHC,3 h,33.6%
same,MCV,3 h,65.1 fL
same,Mono,3 h,5%
same,Neu,3 h,13.6%
same,PT,3 h,12.9 s
same,Plat,3 h,130 x10_4/uL
same,RBC,3 h,626.2 x10_4/ul
same,Ret,3 h,9.1%
same,WBC,3 h,81.1 x10_2/uL
same,KIDNEY_L,3 h,0.9 g
same,KIDNEY_R,3 h,1 g
same,KIDNEY_TOTAL,3 h,1.9 g
same,LIVER,3 h,9.4 g
same,A/G,3 h,2.4
same,ALP,3 h,931 IU/L
same,ALT,3 h,51 IU/L
same,AST,3 h,106.6 IU/L
same,BUN,3 h,23.4 mg/dL
same,CRE,3 h,1.1 mg/dL
same,Ca,3 h,11 mg/dL
same,Cl,3 h,99.4 meq/L
same,DBIL,3 h,0.046 mg/dL
same,GLC,3 h,292.8 mg/dL
same,IP,3 h,9.8 mg/dL
same,K,3 h,4.6 meq/L
same,LDH,3 h,282.6 IU/L
same,Na,3 h,136 meq/L
same,PL,3 h,110.6 mg/dL
same,RALB,3 h,3.8 g/dL
same,TBIL,3 h,0.9 mg/dL
same,TC,3 h,67 mg/dL
same,TG,3 h,18 mg/dL
same,TP,3 h,5.4 g/dL
same,gamma-GTP,3 h,1.8 IU/L
same,TERMINAL_BW,6 h,215 g
same,APTT,6 h,17.1 s
same,Bas,6 h,0%
same,Eos,6 h,1.2%
same,Fbg,6 h,208.2 mg/dL
same,Hb,6 h,13.4 g/dL
same,Ht,6 h,40.7%
same,Lym,6 h,61%
same,MCH,6 h,21.4 pg
same,MCHC,6 h,33%
same,MCV,6 h,64.8 fL
same,Mono,6 h,8%
same,Neu,6 h,30.2%
same,PT,6 h,13.9 s
same,Plat,6 h,123.8 x10_4/uL
same,RBC,6 h,627.6 x10_4/ul
same,Ret,6 h,9.2%
same,WBC,6 h,84.8 x10_2/uL
same,KIDNEY_L,6 h,0.9 g
same,KIDNEY_R,6 h,1 g
same,KIDNEY_TOTAL,6 h,1.9 g
same,LIVER,6 h,8.6 g
same,A/G,6 h,2.2
same,ALP,6 h,925 IU/L
same,ALT,6 h,73.2 IU/L
same,AST,6 h,174 IU/L
same,BUN,6 h,23 mg/dL
same,CRE,6 h,0.7 mg/dL
same,Ca,6 h,10.5 mg/dL
same,Cl,6 h,106.4 meq/L
same,DBIL,6 h,0.048 mg/dL
same,GLC,6 h,168 mg/dL
same,IP,6 h,11.2 mg/dL
same,K,6 h,4.4 meq/L
same,LDH,6 h,277.8 IU/L
same,Na,6 h,138.2 meq/L
same,PL,6 h,110.4 mg/dL
same,RALB,6 h,3.7 g/dL
same,TBIL,6 h,1 mg/dL
same,TC,6 h,67.2 mg/dL
same,TG,6 h,24.4 mg/dL
same,TP,6 h,5.5 g/dL
same,gamma-GTP,6 h,1.4 IU/L
same,TERMINAL_BW,9 h,210.1 g
same,APTT,9 h,17.1 s
same,Bas,9 h,0%
same,Eos,9 h,1%
same,Fbg,9 h,209.8 mg/dL
same,Hb,9 h,13.4 g/dL
same,Ht,9 h,40.7%
same,Lym,9 h,56.4%
same,MCH,9 h,21.6 pg
same,MCHC,9 h,33%
same,MCV,9 h,65.4 fL
same,Mono,9 h,8%
same,Neu,9 h,35%
same,PT,9 h,13.9 s
same,Plat,9 h,123.6 x10_4/uL
same,RBC,9 h,622.2 x10_4/ul
same,Ret,9 h,10.3%
same,WBC,9 h,125.6 x10_2/uL
same,KIDNEY_L,9 h,1 g
same,KIDNEY_R,9 h,1 g
same,KIDNEY_TOTAL,9 h,2 g
same,LIVER,9 h,8.3 g
same,A/G,9 h,2.1
same,ALP,9 h,915.4 IU/L
same,ALT,9 h,60.2 IU/L
same,AST,9 h,166.6 IU/L
same,BUN,9 h,23.8 mg/dL
same,CRE,9 h,0.6 mg/dL
same,Ca,9 h,10.9 mg/dL
same,Cl,9 h,104.6 meq/L
same,DBIL,9 h,0.06 mg/dL
same,GLC,9 h,155.2 mg/dL
same,IP,9 h,11.6 mg/dL
same,K,9 h,4.1 meq/L
same,LDH,9 h,257 IU/L
same,Na,9 h,138.2 meq/L
same,PL,9 h,107.4 mg/dL
same,RALB,9 h,3.9 g/dL
same,TBIL,9 h,0.8 mg/dL
same,TC,9 h,71 mg/dL
same,TG,9 h,38.6 mg/dL
same,TP,9 h,5.8 g/dL
same,gamma-GTP,9 h,1.2 IU/L
same,TERMINAL_BW,24 h,201.7 g
same,APTT,24 h,24.9 s
same,Bas,24 h,0%
same,Eos,24 h,0.4%
same,Fbg,24 h,190.4 mg/dL
same,Hb,24 h,14.1 g/dL
same,Ht,24 h,42.5%
same,Lym,24 h,77%
same,MCH,24 h,21.6 pg
same,MCHC,24 h,33.1%
same,MCV,24 h,65.1 fL
same,Mono,24 h,3.2%
same,Neu,24 h,19.4%
same,PT,24 h,20 s
same,Plat,24 h,121.3 x10_4/uL
same,RBC,24 h,652.2 x10_4/ul
same,Ret,24 h,7.6%
same,WBC,24 h,140.6 x10_2/uL
same,KIDNEY_L,24 h,1.1 g
same,KIDNEY_R,24 h,1.1 g
same,KIDNEY_TOTAL,24 h,2.1 g
same,LIVER,24 h,9.4 g
same,A/G,24 h,2.2
same,ALP,24 h,828.6 IU/L
same,ALT,24 h,296.8 IU/L
same,AST,24 h,1408.4 IU/L
same,BUN,24 h,19.2 mg/dL
same,CRE,24 h,0.5 mg/dL
same,Ca,24 h,10.2 mg/dL
same,Cl,24 h,110.6 meq/L
same,DBIL,24 h,0.2 mg/dL
same,GLC,24 h,167.2 mg/dL
same,IP,24 h,8.4 mg/dL
same,K,24 h,3.9 meq/L
same,LDH,24 h,4785 IU/L
same,Na,24 h,139.2 meq/L
same,PL,24 h,97.6 mg/dL
same,RALB,24 h,3.7 g/dL
same,TBIL,24 h,0.6 mg/dL
same,TC,24 h,56.8 mg/dL
same,TG,24 h,23.2 mg/dL
same,TP,24 h,5.4 g/dL
same,gamma-GTP,24 h,0.8 IU/L
